Data published in patent US20260232652A1, “COMBINATIONS OF DGK (DIACYLGLYCEROL KINASE) INHIBITORS” (priority 2023, published 2026).
Where “and” joins values, the source holds several entries; their conditions need not be identical. Equal entries are not always repeated. Entries after “also recorded” stand apart in the source; their conditions may differ.

What was measured:
[1] = tested on: IFN-γ; experiment: IFN-γ secretion in Colo-800 / MART1 T cell co-culture (ELISA); format: cell-based, human; settings: monotherapy 50 nM; 72 hours after start of co-culture
[2] = tested on: MC38 mouse model; experiment: MC38 mouse model, tumor volume, survival and re-challenge (Example 6); format: in vivo; settings: for inhibition of tumor growth: 3 mg/kg p.o. QD each, versus control group; for Tumor volume: each agent 3 mg/kg, antibodies i.p. BIWx4, DGK inhibitors p.o. QD
Experimental: In order to study triple combinations or quadruple combinations with anti-CCR8 antibodies, at least one DGK inhibitor and an anti-PD(L)1 antibody, multiple experiments were performed. In order to see the differences in efficacy, the administered amounts for each individual compound or antibody were reduced to 3 mg/kg to avoid full efficacy in a monotherapy setup and to be able to evaluate the efficacy for triple and quadruple combination therapy.
Efficacy in a MC38 mouse model was analyzed in groups with 10 mice each and is shown in Table 6.1 and FIGS. 8, 9 and 10. • TPP-15285 (mIgG2a) is a surrogate antibody for anti-CCR8 antibody TPP-23411 and induces both, ADCC and ADCP. TPP-15285 was administered i.p. at 3 mg/kg with a BIWx4 administration scheme. • TPP-10748 (Iso Ctrl aCCR8) served as isotype control for TPP-15285 (mIgG2a) and was administered i.p. at 3 mg/kg with a BIWx4 administration scheme. • TPP-3911 (Atezo, mIgG1) was used as anti-PD(L)1 antibody (e.g. pembrolizumab surrogate) and was administered i.p. at 3 mg/kg with a BIWx4 administration scheme. • TPP-3267 or TPP-10149 (mIgG1) served as isotype control for anti-PD(L)1 antibody TPP-3911 (mIgGa) and were abbreviated Iso Ctrl aPD(L)1.
Antibody treatment was started on ~day 7 after tumor inoculation at ~80-100 mm^3 tumor volume, i.e. antibody administration occurred on days 7, 10, 14 and 17, after tumor inoculation. DGK inhibitor treatment started two days after the first antibody administration, i.e. on ~day 9 after tumor inoculation, i.e. DGK inhibitor was administered on day 9, 10, 11, 12, 13, 14, 15, 16, 17, 18, 19, 20 and 21 after tumor inoculation. Tumor growth inhibition was measured until tumors reached a size of 1100 mm^3 (approx. Day 20 after tumor inoculation).

[3] = tested on: Human PBMCs; experiment: Activation of PBMC cells (CD25+ of CD8+ naïve T-cells, flow cytometry); format: cell-based
Experimental: In addition to the experimental determination according to the protocol provided below, said proportion of CD25+ cells withing the CD8+ naïve T-cells was simulated according to Meyer et al., 2019, Cell Systems 8, 97-108, Feb. 27, 2019.
The relative amount of activated (CD25+) naïve CD8 T cells were analyzed by flow cytometry. Non-stimulated cells served as negative control, cells stimulated with 30 ng/ml aCD3/aCD28/IgG were used as positive control.

[4] = tested on: MC38 syngeneic mouse tumor model; experiment: MC38 syngeneic mouse tumor model, different dose combination ratios (Example 5); format: in vivo; settings: 3 mg/kg p.o. q.d. each (monotherapy, or 3 mg/kg + 3 mg/kg), day 25 after tumor inoculation
Excerpt: The objective of this study was to observe the effects of combination therapies with DGKzeta and/or DGKalpha inhibitors on the tumor volume in the MC38 syngeneic mouse tumor model upon different dose combination ratios. The following eight treatment groups are included: • 1. Vehicle • 2. […] Treatment was started on ~day 8 after tumor inoculation at ~80-100 mm^3 tumor volume. […] Day 25 after tumor inoculation).

[5] = tested on: Hepa 1-6 tumor bearing mice; experiment: Hepa 1-6 tumor bearing mice, mean tumor volume (Example 8); format: in vivo; settings: DGKzeta inhibitor A′ 3 mg/kg QD p.o., TPP-15285 5 mg/kg BIW i.p.
Excerpt: While the antibody administration was started on day 7 after tumor inoculation, the DGK inhibitor treatment started two days later, on day 9 after tumor inoculation. This schedule was designed to allow the efficient depletion of the Tregs by the anti-mouse CCR8 surrogate antibody before the DGK inhibitor activates the T cells. […] While the antibody administration was started on day 7 after tumor inoculation, the DGK inhibitor treatment started two days later, on day 9 after tumor inoculation. This schedule was designed to allow the efficient depletion of the Tregs by the anti-mouse CCR8 surrogate antibody before the DGK inhibitor activates the T cells. […] While the antibody administration was started on day 7 after tumor inoculation, the DGKalpha and DGKzeta inhibitor treatment started two days later, on day 9 after tumor inoculation. This schedule was designed to allow the efficient depletion of the Tregs by the anti-mouse CCR8 surrogate antibody before the DGK inhibitor activates the T cells. […] The DGKalpha and DGKzeta inhibitor treatment started on day 9 after tumor inoculation.

[6] = 4 days after start of treatment
[7] = 7 days after start of treatment
[8] = 10 days after start of treatment
[9] = 12 days after start of treatment
[10] = 14 days after start of treatment
[11] = 17 days after start of treatment
[12] = −1 days after start of treatment (6 days after start of transplantation)
[13] = Day 0, DGKalpha inhibitor A 5 mg/kg QD p.o.
[14] = Day 4, DGKalpha inhibitor A 5 mg/kg QD p.o.
[15] = Day 7, DGKalpha inhibitor A 5 mg/kg QD p.o.
[16] = Day 11, DGKalpha inhibitor A 5 mg/kg QD p.o.
[17] = Day 14, DGKalpha inhibitor A 5 mg/kg QD p.o.
[18] = Day 18, DGKalpha inhibitor A 5 mg/kg QD p.o.
[19] = Day 20, DGKalpha inhibitor A 5 mg/kg QD p.o.

Question: Which “increase in IFN-γ secretion” value [1] does the source give for `COc1ccc(C(=O)c2sc(N(c3ccc(F)cc3)[C@H](C)C(N)=O)nc2N)cc1` [DGKzeta inhibitor A′, (R)-2-(N-[4-amino-5-(4-methoxybenzoyl)thiazol-2-yl]-4-fluoro-anilino)propanamide] here?
Answer: The value was “moderate”.

Question: And the “inhibition of tumor growth” value [2]?
Answer: The value was “only moderate inhibition of tumor growth”.

Question: What about the Tumor volume [2, 6] of the same molecule?
Answer: The Tumor volume was 115.9 mm^3.

Question: And the Tumor volume [2, 7]?
Answer: The Tumor volume was 211.9 mm^3.

Question: What about the Tumor volume [2, 8] of the same molecule?
Answer: The Tumor volume was 322.0 mm^3.

Question: What about the Tumor volume [2, 9] of the same molecule?
Answer: Its Tumor volume is 508.0 mm^3.

Question: What about the Tumor volume [2, 10] of the same molecule?
Answer: The Tumor volume was 684.4 mm^3.

Question: What about the Tumor volume [2, 11] of the same molecule?
Answer: Its Tumor volume is 1097.3 mm^3.

Question: What about the Tumor volume [2, 12] of the same molecule?
Answer: Its Tumor volume is 62.4 mm^3.

Question: What about the “CD25+ of CD8+ naïve T-cells, Observed” value ([3]; unbound DGKai 0 nM, DGKzi 0.037 nM) of the same molecule?
Answer: The value was 2% and 3.2%.

Question: What about the “CD25+ of CD8+ naïve T-cells, Observed” value ([3]; unbound DGKai 0 nM, DGKzi 0.37 nM) of the same molecule?
Answer: The value was 1.7% and 1.6% and 4.2%.

Question: And the “CD25+ of CD8+ naïve T-cells, Observed” value ([3]; unbound DGKai 0 nM, DGKzi 3.7 nM)?
Answer: Its value is 6% and 4.9% and 6.4%.

Question: What about the “CD25+ of CD8+ naïve T-cells, Observed” value ([3]; unbound DGKai 0 nM, DGKzi 11 nM) of the same molecule?
Answer: The value was 15% and 10%.

Question: And the “CD25+ of CD8+ naïve T-cells, Observed” value ([3]; unbound DGKai 0 nM, DGKzi 37 nM)?
Answer: The value was 29% and 18%.

Question: And the “CD25+ of CD8+ naïve T-cells, Observed” value ([3]; unbound DGKai 0 nM, DGKzi 111 nM)?
Answer: The value was 34% and 25% and 35%.

Question: And the “CD25+ of CD8+ naïve T-cells, Observed” value ([3]; unbound DGKai 0 nM, DGKzi 370 nM)?
Answer: Its value is 32% and 44% and 31%.

Question: And the “inhibition of tumor growth” value [4]?
Answer: Its value is “only moderate inhibition of tumor growth”.

Question: And the Mean tumor volume [5, 13]?
Answer: The Mean tumor volume was 88.99 mm^3.

Question: What about the Mean tumor volume [5, 14] of the same molecule?
Answer: The Mean tumor volume was 224.86 mm^3.

Question: And the Mean tumor volume [5, 15]?
Answer: Its Mean tumor volume is 429.26 mm^3.

Question: What about the Mean tumor volume [5, 16] of the same molecule?
Answer: Its Mean tumor volume is 624.07 mm^3.

Question: And the Mean tumor volume [5, 17]?
Answer: Its Mean tumor volume is 799.19 mm^3.

Question: What about the Mean tumor volume [5, 18] of the same molecule?
Answer: Its Mean tumor volume is 1001.75 mm^3.

Question: And the Mean tumor volume [5, 19]?
Answer: Its Mean tumor volume is 1158.6 mm^3.

Question: For `Cc1ccc2oc(C3CCN(c4c(C(N)=O)c(=O)n(C)c5ccc(F)cc45)CC3)nc2c1` [DGKalpha inhibitor A, 6-fluoro-1-methyl-4-[4-(5-methyl-1,3-benzoxazol-2-yl)piperidin-1-yl]-2-oxo-1,2-dihydroquinoline-3-carboxamide], which “increase in IFN-γ secretion” value [1] is on record?
Answer: Its value is “slight”.

Question: And the “inhibition of tumor growth” value [2]?
Answer: Its value is “only moderate inhibition of tumor growth”.

Question: And the Tumor volume [2, 6]?
Answer: The Tumor volume was 134.0 mm^3.

Question: What about the Tumor volume [2, 7] of the same molecule?
Answer: Its Tumor volume is 207.0 mm^3.

Question: What about the Tumor volume [2, 8] of the same molecule?
Answer: Its Tumor volume is 412.4 mm^3.

Question: What about the Tumor volume [2, 9] of the same molecule?
Answer: Its Tumor volume is 524.8 mm^3.

Question: What about the Tumor volume [2, 10] of the same molecule?
Answer: Its Tumor volume is 735.4 mm^3.

Question: And the Tumor volume [2, 11]?
Answer: The Tumor volume was 1122.5 mm^3.

Question: And the Tumor volume [2, 12]?
Answer: Its Tumor volume is 62.0 mm^3.

Question: And the “CD25+ of CD8+ naïve T-cells, Observed” value ([3]; unbound DGKai 0.024 nM, DGKzi 0 nM)?
Answer: The value was 4.1% and 3.1% and 12%.

Question: And the “CD25+ of CD8+ naïve T-cells, Observed” value ([3]; unbound DGKai 0.24 nM, DGKzi 0 nM)?
Answer: Its value is 3.4% and 5.1% and 6.4%.

Question: What about the “CD25+ of CD8+ naïve T-cells, Observed” value ([3]; unbound DGKai 2.4 nM, DGKzi 0 nM) of the same molecule?
Answer: The value was 8.3% and 2.1% and 5%.

Question: What about the “CD25+ of CD8+ naïve T-cells, Observed” value ([3]; unbound DGKai 24 nM, DGKzi 0 nM) of the same molecule?
Answer: Its value is 6.8% and 5.4% and 7.3%.

Question: What about the “CD25+ of CD8+ naïve T-cells, Observed” value ([3]; unbound DGKai 72 nM, DGKzi 0 nM) of the same molecule?
Answer: Its value is 9% and 6.7% and 12%.

Question: And the “inhibition of tumor growth” value [4]?
Answer: The value was “only moderate inhibition of tumor growth; also recorded: no single agent activity”.

Question: What about the Mean tumor volume [5, 13] of the same molecule?
Answer: The Mean tumor volume was 88.99 mm^3.

Question: What about the Mean tumor volume [5, 14] of the same molecule?
Answer: The Mean tumor volume was 186.75 mm^3.

Question: And the Mean tumor volume [5, 15]?
Answer: The Mean tumor volume was 321.40 mm^3.

Question: And the Mean tumor volume [5, 16]?
Answer: Its Mean tumor volume is 461.93 mm^3.

Question: And the Mean tumor volume [5, 17]?
Answer: The Mean tumor volume was 569.94 mm^3.

Question: What about the Mean tumor volume [5, 18] of the same molecule?
Answer: Its Mean tumor volume is 787.30 mm^3.

Question: What about the Mean tumor volume [5, 19] of the same molecule?
Answer: The Mean tumor volume was 957.86 mm^3.
